Patent US8431514B2, “4-cyano-3-benzoylamino-N-phenyl-benzamides for use in pest control” (Syngenta Crop Protection LLC, priority 2009, dated 2013)

How the values were obtained:
Format in all cases: in vivo
Diabrotica balteata = Diabrotica balteata (corn root worm) artificial diet test; details: 120 h, application rate 200 ppm (concentration in well 18 ppm), L2 larvae, larval mortality and growth regulation after 5 days
Description: (§1) These Examples illustrate the insecticidal and acaricidal properties of the compounds of formula (I). The tests were performed as follows:
(§2) Cotton leaf discs were placed on agar in a 24-well microtiter plate and sprayed with test solutions at an application rate of 200 ppm. After drying, the leaf discs were infested with 5 L1 larvae. The samples were checked for mortality, feeding behavior, and growth regulation 3 days after treatment (DAT). The following compound gave at least 80% control of Spodoptera littoralis: A1, A2, A3, A4, A5, A6, A7, A8, A9, A10, A11, A12, A14, A15, A16, A17, A18, A19, A20. Heliothis Virescens (Tobacco Budworm): Eggs (0-24 h old) were placed in 24-well microtiter plate on artificial diet and treated with test solutions at an application rate of 200 ppm (concentration in well 18 ppm) by pipetting. After an incubation period of 4 days, samples were checked for egg mortality, larval mortality, and growth regulation. The following compound gave at least 80% control of Heliothis virescens: A1, A2, A3, A4, A5, A6, A7, A8, A9, A10, A11, A12, A14, A15, A16, A17, A18, A19, A20. Plutella Xylostella (Diamond Back Moth): 24-well microtiter plate (MTP) with artificial diet was treated with test solutions at an application rate of 200 ppm (concentration in well 18 ppm) by pipetting. After drying, the MTP's were infested with L2 larvae (7-12 per well). After an incubation period of 6 days, samples were checked for larval mortality and growth regulation. The following compound gave at least 80% control of Plutella xylostella: A1, A2, A3, A4, A5, A6, A7, A8, A9, A10, A11, A12, A13, A14, A15, A16, A17, A18, A19, A20. Diabrotica Balteata (Corn Root Worm): A 24-well microtiter plate (MTP) with artificial diet was treated with test solutions at an application rate of 200 ppm (concentration in well 18 ppm) by pipetting. After drying, the MTP's were infested with L2 larvae (6-10 per well). After an incubation period of 5 days, samples were checked for larval mortality and growth regulation. The following compound gave at least 80% control of Diabrotica balteata: A1, A2, A3, A4, A5, A6, A7, A8, A9, A10, A11, A12, A13, A14, A16, A17, A18, A19, A20. Thrips Tabaci (Onion Thrips): Sunflower leaf discs were placed on agar in a 24-well microtiter plate and sprayed with test solutions at an application rate of 200 ppm. After drying, the leaf discs were infested with an […] population of mixed ages. After an incubation period of 7 days, samples were checked for mortality. The following compounds gave at least 80% control of Thrips tabaci: A1, A2, A3, A4, A5, A6, A7, A8, A9, A10, A14, A16, A17, A18, A19, A20. Tetranychus Urticae (Two-Spotted Spider Mite): Bean leaf discs on agar in 24-well microtiter plates were sprayed with test solutions at an application rate of 200 ppm. After drying, the leaf discs are infested with mite populations of mixed ages. 8 days later, discs are checked for egg mortality, larval mortality, and adult mortality. The following compounds gave at least 80% control of Tetranychus urticae: A1, A2, A3, A4, A5, A6, A7, A8, A9, A10, A11, A12, A13, A14, A15, A16, A17, A19, A20.

Thrips tabaci = Thrips tabaci (onion thrips) sunflower leaf disc spray test; details: foliar, 168 h, application rate 200 ppm, sunflower leaf discs, population of mixed ages, mortality after 7 days
Description: as §1, §2

Heliothis virescens = Heliothis virescens (tobacco budworm) egg test on artificial diet; details: 96 h, application rate 200 ppm (concentration in well 18 ppm), eggs 0-24 h old on artificial diet, egg mortality, larval mortality and growth regulation after 4 days
Description: as §1, §2

Plutella xylostella = Plutella xylostella (diamond back moth) artificial diet test; details: 144 h, application rate 200 ppm (concentration in well 18 ppm), L2 larvae, larval mortality and growth regulation after 6 days
Description: as §1, §2

Spodoptera littoralis = Spodoptera littoralis (Egyptian cotton leafworm) leaf disc spray test; details: foliar, 72 h, application rate 200 ppm, cotton leaf discs, 5 L1 larvae, mortality, feeding behavior and growth regulation 3 days after treatment
Description: as §1, §2

Tetranychus urticae = Tetranychus urticae (two-spotted spider mite) bean leaf disc spray test; details: foliar, 192 h, application rate 200 ppm, bean leaf discs, mite populations of mixed ages, egg, larval and adult mortality 8 days later, read-out: control of Tetranychus urticae
Description: as §1, §2

Measured: pest or weed control at 200 ppm

CCc1cc(C(F)(C(F)(F)F)C(F)(F)C(F)(F)F)cc(C)c1NC(=O)c1ccc(C#N)c(NC(=O)c2ccc(C#N)cc2C)c1 (stereo not drawn) [A1, 4-cyano-3-(4′-cyano-2′-methylbenzoylamino)-N-[2-ethyl-6-methyl-4-(1,2,2,3,3,3-hexafluoro-1-trifluoromethylpropyl)phenyl]benzamide]
≥ 80%: all assays above

COCc1cc(C(F)(C(F)(F)F)C(F)(F)C(F)(F)F)cc(C)c1NC(=O)c1ccc(C#N)c(NC(=O)c2ccc(C#N)cc2C)c1 (stereo not drawn) [A9, 4-cyano-3-(4′-cyano-2′-methyl-benzoylamino)-N-[4-(1,2,2,3,3,3-hexafluoro-1-trifluoromethylpropyl)-2-methoxymethyl-6-methylphenyl]benzamide]
≥ 80%: all assays above

Cc1cc(C#N)ccc1C(=O)Nc1cc(C(=O)Nc2c(Br)cc(C(F)(C(F)(F)F)C(F)(F)F)cc2Br)ccc1C#N [A3, 4-cyano-3-(4′-cyano-2′-methylbenzoylamino)-N-[2,6-dibromo-4-(1,2,2,2-tetrafluoro-1-trifluoromethylethyl)phenyl]benzamide]
≥ 80%: all assays above

CSc1cc(C(F)(C(F)(F)F)C(F)(F)C(F)(F)F)cc(Cl)c1NC(=O)c1ccc(C#N)c(NC(=O)c2ccc(C#N)cc2C)c1 (stereo not drawn) [A10, N-[2-chloro-4-(1,2,2,3,3,3-hexafluoro-1-trifluoromethylpropyl)-6-methylthiophenyl]-4-cyano-3-(4′-cyano-2′-methylbenzoylamino)benzamide]
≥ 80%: all assays above

Cc1cc(C#N)ccc1C(=O)Nc1cc(C(=O)Nc2c(Cl)cc(C(F)(C(F)(F)F)C(F)(F)C(F)(F)F)cc2C#N)ccc1C#N (stereo not drawn) [A7, N-[2-chloro-6-cyano-4-(1,2,2,3,3,3-hexafluoro-1-trifluoromethylpropyl)-phenyl]-4-cyano-3-(4′-cyano-2′-methylbenzoylamino)benzamide]
≥ 80%: all assays above

Cc1cc(C#N)ccc1C(=O)Nc1cc(C(=O)Nc2c(Cl)cc(C(F)(C(F)(F)F)C(F)(F)C(F)(F)F)cc2Br)ccc1C#N (stereo not drawn) [A2, N-[2-bromo-6-chloro-4-(1,2,2,3,3,3-hexafluoro-1-trifluoromethylpropyl)-phenyl]-4-cyano-3-(4′-cyano-2′-methylbenzoylamino)benzamide]
≥ 80%: all assays above

Cc1cc(C#N)ccc1C(=O)Nc1cc(C(=O)Nc2c(Cl)cc(C(F)(C(F)(F)F)C(F)(F)C(F)(F)F)cc2Cl)ccc1C#N (stereo not drawn) [A8, 4-cyano-3-(4′-cyano-2′-methylbenzoylamino)-N-[2,6-dichloro-4-(1,2,2,3,3,3-hexafluoro-1-trifluoromethylpropyl)phenyl]benzamide]
≥ 80%: all assays above
